For the test, the system named is wild-type M. tuberculosis. In words: microbe, parasite or virus in culture. In kind it is cell-based, Mycobacterium tuberculosis. As to conditions: for MIC / IC90: Mycobacterium tuberculosis; for MIC: read-out: MIC.

SMILES strings stand for the structures. ≈ marks a conversion by molar mass, not a printed value. Read-outs that look alike come from different tables or passages of the source.

One may read the IC90 as the concentration needed for an effect of 90%. The low end stands for greater potency, the high end for weaker potency.

With `C1=CC2(CCN(CC3CCCCC3)CC2)c2ccccc21` [Molecule 4PP-35, 1'-(Cyclohexylmethyl)spiro[indene-1,4'-piperidine]; 2,2,2-trifluoroacetic acid], the MIC was found to be 6.3 µM (≈ 1.77 µg/mL). Moreover, the MIC (120 h) worked out at 6.3 ± 0.1 µM (≈ 1.77 µg/mL). For `O=C(O)C(F)(F)F.c1ccc2c(C3CCN(CC4CCCCC4)CC3)cccc2c1` [Molecule 4PP-31, 1-(Cyclohexylmethyl)-4-(1-naphthyl)piperidine; 2,2,2-trifluoroacetic acid], the IC90 turned out to be 2.7 µM and the MIC came to 2.7 µM. Also, the MIC (120 h) is 2.7 ± 2.4 µM. Consider `O=C(C1CCCCC1)N1CCC(c2ccccc2)CC1` [Molecule 4PP-10, Cyclohexyl(4-phenylpiperidin-1-yl) methanone], for which the “anti-tubercular activity (in words)” value was “lost activity”. Further, the MIC (120 h) is greater than 20 µM. `CC1C(CNC(=O)Nc2ccccc2)CC2CC1C2(C)C` (stereo not shown) [HBU-2]: the IC90 worked out at 4.9 µM.

With `CC(C)(C)CC(C)(C)N1CCN(c2ccc(C(C)(C)C)cc2)CC1` [Molecule 4PP-49, 1-(4-(t-Butyl)phenyl)-4-(2,4,4-trimethylpentan-2-yl)piperazine], the “anti-tubercular activity (in words)” value is on record as “loss in activity”. In addition, the MIC (120 h) was greater than 5 µM. For the molecule `CC(C)(C)c1ccc(C2CCN(C3CCOCC3)CC2)cc1` [Molecule 4PP-24, 4-(4-(tert-Butyl)phenyl)-1-(tetrahydro-2H-pyran-4-yl)piperidine], the MIC is greater than 20 µM. The MIC (120 h) was greater than 20 µM. For the molecule `c1ccc(C2CCN(CC3CCCCC3)CC2)cc1` [Molecule 4PP-4, 1-Cyclohexylmethyl-4-phenyl-piperidine], the MIC came out at 21 µM (≈ 5.41 µg/mL). The MIC (120 h) was 21 ± 9 µM (≈ 5.41 µg/mL). The corresponding values for `CC(C)(C)c1ccc(C2CCN(CC3CCCCC3)CC2)cc1` [Molecule 4PP-3, 4-(4-t-Butylphenyl)-1-(cyclohexylmethyl)piperidine; 2,2,2-trifluoroacetic acid] are 6.8 µM (≈ 2.13 µg/mL) and 6.8 ± 0.9 µM (≈ 2.13 µg/mL).

On to `CC(C)(C)c1ccc(C2CCN(C(=O)N3CCCCC3)CC2)cc1` [Molecule 4PP-8, (4-(4-(t-Butyl)phenyl)piperidin-1-yl)(piperidin-1-yl)methanone], for which the “anti-tubercular activity (in words)” value is given as “loss of activity”. Moreover, for the setting “120 h”, the MIC is greater than 20 µM.

Regarding `CC(NC(=O)Nc1nc(-c2ccc(Cl)cc2)cs1)C1CC2C=CC1C2` (stereo not shown) [HBU-5], the IC90 was 13 µM. Turning to `COC(=O)C1CCC(N2CCC(c3ccccc3)CC2)CC1` (stereo not shown) [Molecule 4PP-22, Methyl 4-(4-phenylpiperidin-1-yl)cyclohexane-1-carboxylate], the “anti-tubercular activity (in words)” value was “loss of activity”. The MIC (120 h) was greater than 20 µM. Take `CC(C)(C)CC(C)(C)N1CCC(c2ccccc2)CC1` [Molecule 4PP-44, 4-Phenyl-1-(1,1,3,3-tetramethyl-butyl)-piperidine]: the 90% effect level (IC90) was put at 5.2 µM and the MIC worked out at 5.2 µM (≈ 1.42 µg/mL). Besides, the MIC (120 h) stood at 5.2 ± 5 µM (≈ 1.42 µg/mL).

Turning to `CC(=O)NCC1(c2ccccc2)CCN(CC2CCCCC2)CC1` [Molecule 4PP-38, N-[[1-(Cyclohexylmethyl)-4-phenyl-4-piperidyl]methyl]acetamide; 2,2,2-trifluoroacetic acid], the MIC (120 h) is greater than 20 µM. As to `CC(C)(C)c1ccc(C2CCN(S(=O)(=O)C3CCCCC3)CC2)cc1` [Molecule 4PP-5, 4-(4-(t-Butyl)phenyl)-1-(cyclohexylsulfonyl)piperidine], the “anti-tubercular activity (in words)” value is “lost whole-cell activity”. Further, where the note is “120 h”, the MIC was greater than 20 µM. For the molecule `CC(C)(C)CC(C)(C)N1CCC(c2c[nH]c3ncccc23)CC1` [Molecule 4PP-46, 3-(1-(2,4,4-Trimethylpentan-2-yl)piperidin-4-yl)-1H-pyrrolo[2,3-b]pyridine], the “anti-tubercular activity (in words)” value was “inactive”. Further, the MIC (120 h) is greater than 20 µM. Regarding `CN1CCC(N2CCC(c3ccccc3)CC2)CC1` [Molecule 4PP-27, 1'-Methyl-4-phenyl-1,4'-bipiperidine], the MIC is greater than 20 µM. For the same molecule, the MIC (120 h) is greater than 20 µM. With `CN(C)C1CCC(N2CCC(c3ccc(C(C)(C)C)cc3)CC2)CC1` (stereo not shown) [Molecule 4PP-17, 4-(4-(4-(t-Butyl)phenyl)piperidin-1-yl)-N,N-dimethylcyclohexan-1-amine], the “anti-tubercular activity (in words)” value is given as “detrimental to the activity”. Moreover, the MIC (120 h) is greater than 20 µM. Turning to `OCC1(c2ccccc2)CCN(CC2CCCCC2)CC1` [Molecule 4PP-40, [1-(Cyclohexylmethyl)-4-phenyl-4-piperidyl]methanol; 2,2,2-trifluoroacetic acid], for the setting “120 h”, the MIC is greater than 20 µM. For `Clc1cccc(C2CCN(CC3CCCCC3)CC2)c1` [Molecule 4PP-29, 4-(3-Chlorophenyl)-1-(cyclohexylmethyl)piperidine; 2,2,2-trifluoroacetic acid], the MIC stood at 4.1 µM (≈ 1.2 µg/mL). For the setting “120 h”, the MIC was determined as 4.1 µM (≈ 1.2 µg/mL). Turning to `CC(C)(C)CC(C)(C)N1CC=C(c2c[nH]c3ncccc23)CC1` [Molecule 4PP-45, 3-(1-(2,4,4-Trimethylpentan-2-yl)-1,2,3,6-tetrahydropyridin-4-yl)-1H-pyrrolo[2,3-b]pyridine], the “anti-tubercular activity (in words)” value was “inactive”. In addition, the MIC (120 h) is greater than 20 µM. The corresponding values for `COC(=O)C1CCC(N2CCC(c3ccc(C(C)(C)C)cc3)CC2)CC1` (stereo not shown) [Molecule 4PP-18, Methyl 4-(4-(4-(tert-butyl)phenyl)piperidin-1-yl)cyclohexane-1-carboxylate] are “loss in activity” and greater than 20 µM. The corresponding values for `CC(C)(C)c1ccc(C2CCN(C3CCC(=O)CC3)CC2)cc1` [Molecule 4PP-20, 4-[4-(4-t-Butyl-phenyl)-piperidin-1-yl]-cyclohexanone] are “loss in activity” and greater than 20 µM.

In the case of `c1ccc(C2CCN(C3CCOCC3)CC2)cc1` [Molecule 4PP-26, 4-Phenyl-1-(tetrahydro-2H-pyran-4-yl)piperidine], the MIC is greater than 20 µM. Further, the MIC (120 h) was greater than 20 µM.

Regarding `CC(C)(C)CC(C)(C)N1CCC(c2c[nH]c3ccccc23)CC1` [Molecule 4PP-48, 3-(1-(2,4,4-Trimethylpentan-2-yl)piperidin-4-yl)-1H-indole], the MIC came out at 1.6 µM (≈ 0.5 µg/mL). The MIC (120 h) amounted to 1.6 µM (≈ 0.5 µg/mL).

`CC(C)(C)NC(=O)N1CCC(c2ccc(C(C)(C)C)cc2)CC1` [Molecule 4PP-7, N-(t-Butyl)-4-(4-(tert-butyl)phenyl)piperidine-1-carboxamide]: the “anti-tubercular activity (in words)” value is “loss of activity”. Under “120 h”, the MIC is greater than 20 µM.

In the case of `CC(C)(C)c1ccc(C2CCN(C3CCC(C(=O)O)CC3)CC2)cc1` (stereo not shown) [Molecule 4PP-19, 4-(4-(4-(tert-Butyl)phenyl)piperidin-1-yl)cyclohexane-1-carboxylic acid], the “anti-tubercular activity (in words)” value is on record as “loss in activity”. For the same molecule, where the note is “120 h”, the MIC was greater than 20 µM. With `CN1CCC(N2CCC(c3ccc(C(C)(C)C)cc3)CC2)CC1` [Molecule 4PP-25, 4-(4-(tert-Butyl)phenyl)-1'-methyl-1,4'-bipiperidine], the MIC is greater than 20 µM. Further, the MIC (120 h) is greater than 20 µM. The molecule `COc1ccc(-c2cc(N)nc(-n3nc(C)cc3C)n2)cc1` [PZP-1] displayed an IC90 of 5.2 µM. As for `Brc1cccc(C2CCN(CC3CCCCC3)CC2)c1` [Molecule 4PP-28, 4-(3-Bromophenyl)-1-(cyclohexylmethyl)piperidine; 2,2,2-trifluoroacetic acid], the MIC stood at 2.8 µM (≈ 0.942 µg/mL). The MIC (120 h) was found to be 2.8 ± 0.7 µM (≈ 0.942 µg/mL). With `CC(C)(C)CC(=O)N1CCC(c2ccccc2)CC1` [Molecule 4PP-14, 3,3-Dimethyl-1-(4-phenylpiperidin-1-yl)butan-1-one], the “anti-tubercular activity (in words)” value is “did not furnish activity”. Further, where the note is “120 h”, the MIC was greater than 20 µM. The corresponding values for `O=S(=O)(C1CCCCC1)N1CCC(c2ccccc2)CC1` [Molecule 4PP-9, 1-(Cyclohexylsulfonyl)-4-phenylpiperidine] are “lost activity” and greater than 20 µM. The corresponding values for `CC(C)(C)CC(C)(C)N1CCN(c2ccccc2)CC1` [Molecule 4PP-50, 1-Phenyl-4-(2,4,4-trimethylpentan-2-yl)piperazine] are “loss in activity” and greater than 10 µM. In turn, `Cc1nc(-c2ccccn2)nc(NCc2ccccc2)c1Cl` [APDP-3] yielded an IC90 of 6.3 µM. For the molecule `FC1CN(CC2CCCCC2)CCC1c1ccccc1.O=C(O)C(F)(F)F` (stereo not shown) [Molecule 4PP-51, 1-(Cyclohexylmethyl)-3-fluoro-4-phenyl-piperidine; 2,2,2-trifluoroacetic acid], the “anti-tubercular activity (in words)” value is recorded as “not tolerated”. Further, the MIC (120 h) is greater than 20 µM. `O=C(NCCc1ccc(Br)cc1)NC12CC3CC(CC(C3)C1)C2` [HBU-4]: the IC90 was 12 µM.

Take `Cc1cc(C)n(-c2nc(N)cc(-c3cccc(F)c3)n2)n1` [PZP-2]: the IC90 turned out to be 7.4 µM. As to `FC1CN(CC2CCCCC2)CCC1c1ccc(Cl)cc1.O=C(O)C(F)(F)F` (stereo not shown) [Molecule 4PP-52, 4-(4-Chlorophenyl)-1-(cyclohexylmethyl)-3-fluoro-piperidine; 2,2,2-trifluoroacetic acid], the “anti-tubercular activity (in words)” value was “not tolerated”. Moreover, the MIC (120 h) was greater than 20 µM. The corresponding values for `CC(C)(C)c1ccc(C2CCN(C(=O)C3CCCCC3)CC2)cc1` [Molecule 4PP-6, (4-(4-(t-Butyl)phenyl)piperidin-1-yl)(cyclohexyl)methanone] are “lost whole-cell activity” and greater than 20 µM. On to `c1ccc(C2CCN(Cc3ccc4c(c3)OCO4)CC2)cc1` [Molecule 4PP-42, 1-(Benzo[d][1,3]dioxol-5-ylmethyl)-4-phenylpiperidine], for which the “anti-tubercular activity (in words)” value was “inactive”. Moreover, for the setting “120 h”, the MIC is greater than 20 µM. The corresponding values for `OC1CCC(N2CCC(c3ccccc3)CC2)CC1` (stereo not shown) [Molecule 4PP-23, 4-(4-Phenylpiperidin-1-yl)cyclohexan-1-ol] are “loss of activity” and greater than 20 µM.

For the molecule `N#CC1(c2ccccc2)CCN(CC2CCCCC2)CC1` [Molecule 4PP-37, 1-(Cyclohexylmethyl)-4-phenyl-piperidine-4-carbonitrile; 2,2,2-trifluoroacetic acid], the MIC (120 h) was greater than 20 µM. Consider `Cc1nc(-c2ccccn2)nc(NCCNc2ccc(C(F)(F)F)cn2)c1Cl` [APDP-2], for which the IC90 is 33 µM.

Source of the values: article PMC9435431, “Novel chemical entities inhibiting Mycobacterium tuberculosis growth identified by phenotypic high-throughput screening” (Scientific Reports, 2022).
